# Test results as given in PMC11077815, “Synthesis and antitumor activity of dolutegravir derivatives bearing 1,2,3-triazole moieties” (BMC Chemistry, 2024).
# Assays:
# [1] = test system: HRM (Human Renal Mesangial) cell line; assay: CCK8 cell viability assay, HRM normal cells (toxicity control); format: cell-based; details: for IC50: HRM normal human cells, 48 h, CCK8, mean ± SE
# Protocol: Based on these preliminary results, compounds 9c, 9e, 9f, 9i, 9k, 9 L, 9p, 9q, 9t, 9u, 9v, 9w, 10c, 10e which were effective to most of the cell lines were chosen for the measurement of the half-maximal inhibitory concentration (IC50). […] HRM (Human Renal Mesangial) cell line was used as a control to study the toxicity of these compounds against normal human cells.
# (§1) CCK8 assay was used to measure cell viability. Cells with a density of 1 × 10^4 cells/well were seeded on the 96-well plates. After adhesion, cells were treated with different diluted compounds or vehicle control DMSO and continue cultured for 48 h. Then, CCK8 reagent was added for one hour incubation at 37 °C with 5% of CO2. Absorbance was measured using a microplate spectrophotometer (Thermo) at 450 nm. The ratio of cell viability of control was taken as 100%. […] Then IC50 of the compounds were investigated using the prism statistical software.
# γ-H2AX = assay: Western blot of γ-H2AX in PC-9 cells; format: cell-based, Human; details: PC-9, 0, 2, 4, 8 µM, 48 h
# Excerpt: To determine the role of compounds 9e and 9p on regulating the development of cell proliferation, expressions of key proteins which were involved in cell growth progresses such as autophagy, apoptosis, cell cycle and DNA damage were examined. Ubiquitin like molecule light chain 3 (LC3) is a key marker of autophagy. […] Caspase3, which is one of the key proteins in regulating apoptosis, however, was not changed in tumor cells after treated with 9e or 9p. Cell cycle regulation proteins such as CyclinD, CyclinE or β-catenin were also not affected when PC-9 was treated with 9e or 9p. Further, H2AX variant histone (γ-H2AX), which was responsible for DNA damage, was also not affected when PC-9 were treated with 9e or 9p.
# Protein expression levels were measured by western blot. PC-9 cells were cultured in 12-well plates and different concentrations (0, 2, 4, 8µM) of 9e and 9p were added for 48 h. Proteins were extracted from whole cells using radioimmunoprecipitation assay (RIPA). Buffer containing protease/phosphatase inhibitor cocktail (CST). Sodium dodecyl sulfate (10-15%) polyacrylamide gel electrophoresis and nitrocellulose membranes (Millipore) were used to separate and collect proteins. Antibodies used include, LC3 (3868s, CST), Caspase3 (9662, CST), cyclin D (2922s, CST), cyclin E (20808s, CST), γ-H2AX (9718s, CST), and β-actin (4967s, CST).
# A549 = assay: CCK8 cell viability assay, A549; format: cell-based, Human; details: for Cell viability (100%): A549, 20 µM, 48 h, CCK8, control = 100%; for IC50: A549, 48 h, CCK8, mean ± SE
# Protocol: as §1, with “At first, CCK8 assay was carried out to evaluate the anti-proliferative activity of dolutegravir-1,2,3-triazole derivatives against different cancer cell lines. The results of cell viability of three lung cancer cell lines A549, PC-9 and H460 in the presence of compounds 9 and 10 are summarized in Table 2. Cells were treated with different compounds at the concentration of 20 µM for 48 h. […] Human lung cancer cell lines A549, PC-9 and H460 were all obtained from ATCC. Cells were cultured in DMEM or RPMI 1640 medium containing 10% FBS and 1% penicillin/streptomycin at 37 °C with a 5% CO2-humidified atmosphere. CCK8 assay” for “CCK8 assay”
# PC-9 = assay: Plate clone formation assay, PC-9; format: cell-based, Human; details: PC9, 0, 2, 4, 8, 16 and 32 µM, 48 h
# Protocol: (§2) The plate clone formation experiments were also carried outto further confirm the effects of dolutegravir derivatives on cell proliferation. Compounds 9e and 9p with different concentrations (0, 2, 4, 8, 16 and 32 µM) were added to the cells.
# (§3) PC-9 and H460 cells were seeded into 6-well plates at a density of 100–500 cells/well. After 10 days culture, cells were added with 9e or 9p at different concentrations (0, 2 µM, 4 µM, 8 µM, 16 µM, 32 µM) for 48 h. Then cells were fixed by 4% paraformaldehyde and stained by Giemsa dye. An optical microscope was used to photograph cells and count the clone numbers.
# H460 = assay: Plate clone formation assay, H460; format: cell-based, Human; details: H460, 0, 2, 4, 8, 16 and 32 µM, 48 h
# Protocol: as §2, §3
IC50 (A549) [µM],SMILES,toxicity against normal cells ([1]; HRM cells),IC50 [1] [µM],γ-H2AX expression (γ-H2AX),Cell viability (100%) (A549) [%],plate clone formation (cell proliferation) (PC-9),plate clone formation (cell proliferation) (H460)
8.72 ± 0.11,COc1c2n(cc(C(=O)Nc3cccc(-c4cn(-c5cccc([N+](=O)[O-])c5C)nn4)c3)c1=O)C[C@@H]1OCC[C@@H](C)N1C2=O [Compound 9e],low toxicity against normal cells,> 50,not affected,9.14,anti-proliferative activity against cell lines PC9 and H460 in a dose-dependent manner,anti-proliferative activity against cell lines PC9 and H460 in a dose-dependent manner
13 ± 0.32,COc1c2n(cc(C(=O)Nc3cccc(-c4cn(-c5cccc(C(F)(F)F)c5)nn4)c3)c1=O)C[C@@H]1OCC[C@@H](C)N1C2=O [Compound 9p],–,35.6 ± 10.8,not affected,10.85,anti-proliferative activity against cell lines PC9 and H460 in a dose-dependent manner,anti-proliferative activity against cell lines PC9 and H460 in a dose-dependent manner
